Test [1] has as its target T1, KAT-2 (kynurenine aminotransferase-2) (Homo sapiens, UniProt Q8N5Z0).
T1 construct: gene AADAT; recombinant KAT-2
As to the kind of experiment: HPLC assay of KYN to KYNA conversion by recombinant human KAT-2. In kind it is biochemical.

Test [2] has as its target T1, KAT-2 (kynurenine aminotransferase-2). The test can be described thus: HPLC assay of KYN to KYNA conversion by recombinant human KAT-2, % inhibition at […]. Format: biochemical.

These results are taken from paper PMC6273595, “Study of the Activity and Possible Mechanism of Action of a Reversible Inhibitor of Recombinant Human KAT-2: A Promising Lead in Neurodegenerative and Cognitive Disorders” (Molecules, 2016).

As a reminder, the IC50 is the midpoint of a concentration-inhibition curve. As a reminder, the inhibition is the change of the read-out against control, counted positive when it falls.

Like-named read-outs stand apart in the source and are kept apart here.

T1 sequence (Q8N5Z0 30-425): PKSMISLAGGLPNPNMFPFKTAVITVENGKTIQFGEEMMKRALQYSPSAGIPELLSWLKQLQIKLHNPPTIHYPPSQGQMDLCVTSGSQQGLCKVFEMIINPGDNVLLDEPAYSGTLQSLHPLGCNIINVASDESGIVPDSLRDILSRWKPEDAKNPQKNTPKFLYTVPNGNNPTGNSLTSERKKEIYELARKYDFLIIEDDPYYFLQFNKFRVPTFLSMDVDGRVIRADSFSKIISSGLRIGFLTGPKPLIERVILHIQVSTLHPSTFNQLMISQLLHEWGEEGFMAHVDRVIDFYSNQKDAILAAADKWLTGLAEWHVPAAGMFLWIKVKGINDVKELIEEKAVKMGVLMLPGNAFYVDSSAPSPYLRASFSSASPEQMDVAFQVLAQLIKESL

As to `N[C@H]1Cc2ccccc2N(O)C1=O` [PF-04859989], in test [1], the half-maximal inhibitory concentration (IC50) is 1 to 3 µM. Turning to `C[C@H]1COc2c(N3CCN(N)CC3)c(F)cc3c(=O)c(C(=O)O)cn1c23` [BFF-122], in test [1] (read-out: IC50), the IC50 was 15 to 20 µM. As for `CCS(=O)(=O)c1ccc(C(=O)C[C@H](N)C(=O)O)cc1` [(S)-ESBA, (S)-4-(Ethylsulfonyl)benzoylalanine], the inhibition at 200 µM in test [2] came to 20%.
